Tests used:
[1] = tested on: transplanted tumor of human glioma cell U251; experiment: U251 transplanted tumor in nude mice; settings: U251 nude mice, 30 mg/kg
Description: (§1) U251 cells in a logarithmic growth phase were taken and subjected to a trypan blue exclusion experiment showing that the cell viability was more than 95%, then the cells were subjected to trypsinization, centrifugation, and supernatant removal. Then cell concentration was adjusted to 1×10^7/ml with matrigel, then each nude mouse was inoculated subcutaneously with 0.2 ml of cells at its right armpit and recorded as the first day of inoculation. When the tumor grows to be greater than or equal to 100 mm^3, the mice were randomly divided into 11 groups with 6 mice in each group: a model group, a cyclophosphamide group, isovaleryl spiramycin I groups with doses of 25, 50 and 100 mg/kg, isovaleryl spiramycin II groups with doses of 25, 50 and 100 mg/kg, and isovaleryl spiramycin III groups with doses of 25, 50 and 100 mg/kg. Each group was continuously administered intragastrically for 30 days with a dose of 20 ml/kg. The mice were sacrificed the next day after drug withdrawal and the indicators were tested. The long diameter and short diameter of the tumor, and the body weight of each mouse were recorded every 3 days from drug administration to nude mouse sacrifice.
(§2) The body weight of the nude mice and the long diameter (a) and short diameter (b) of the transplanted tumor were measured every 3 days, and the tumor volume (v), relative tumor volume (RTV) and relative tumor proliferation rate (T/C) are calculated respectively according to the following formulas, wherein V=a×b^2/2; RTV=V/V0 (V0 is the tumor volume before administration, V is the tumor volume before sacrifice), and T/C (%)=treatment group RTV/model control group RTV×100%.
(§3) Each mouse was weighed and sacrificed. After the tumor was completely stripped off from the body of the mouse, the non-tumor tissues such as blood stains and fat were removed to weigh the tumor and calculate the tumor growth inhibition rate. The average tumor weight of each group of mice is used as an indicator of efficacy. Tumor growth inhibition rate (%)=(1−the average tumor weight of the treatment group/the average tumor weight of the model group)×100%.

[2] = tested on: transplanted tumor of HT-29 cells; experiment: HT-29 transplanted tumor in nude mice
Description: as §1, with “Then” for “U251 cells in a logarithmic growth phase were taken and subjected to a trypan blue exclusion experiment showing that the cell viability was more than 95%, then the cells were subjected to trypsinization, centrifugation, and supernatant removal. Then”, “group:” for “group: a model group, a cyclophosphamide group,”
as §2, §3

Structure (SMILES): O=P1(N(CCCl)CCCl)NCCCO1 (stereo not shown) [Cyclophosphamide, cyclophosphamide, reference compound]
- Inhibition Rate (%) [1]: 69.31%
- Relative Tumor Proliferation Rate (T/C) [1]: 62.92%
- Relative Tumor Volume (RTV) [1]: 4.23 ± 0.95
- Tumor Weight [1]: 0.42 ± 0.06 g
- Body Weight (g) (d1) ([1]; d1): 20.72 ± 0.48 g
- Tumor Volume (mm3) (d 1) ([1]; d1): 119.00 ± 11.13 mm3
- Body Weight (g) (d30) ([1]; d30): 19.40 ± 1.40 g
- Tumor Volume (mm3) (d30) ([1]; d30): 504.56 ± 93.91 mm3
- Inhibition Rate (%) ([2]; HT-29 nude mice, 30 mg/kg): 78.87%
- Tumor Weight ([2]; HT-29 nude mice, 30 mg/kg): 0.50 ± 0.25 g
- Body Weight (g) (d1) ([2]; HT-29 nude mice, 30 mg/kg, d1): 21.42 ± 1.35 g
- Body Weight (g) (d30) ([2]; HT-29 nude mice, 30 mg/kg, d30): 18.69 ± 1.21 g
- Relative Tumor Proliferation Rate (T/C) ([2]; dose 30 mg/kg): 19.84%
- Relative Tumor Volume (RTV) ([2]; dose 30 mg/kg): 2.86 ± 1.44
- Tumor Volume (mm3) (d 1) ([2]; dose 30 mg/kg, d 1): 176.59 ± 36.81 mm3
- Tumor Volume (mm3) (d30) ([2]; dose 30 mg/kg, d 30): 477.12 ± 166.46 mm3

From patent US20200163984A1, “USE OF ISOVALERYL SPIRAMYCIN I, II AND/OR III IN MANUFACTURING MEDICAMENT FOR TREATING AND/OR PREVENTING TUMOR, AND MEDICAMENT” (SHENYANG FUYANG PHARMACEUTICAL TECHNOLOGY CO., LTD., priority 2017, published 2020)
